The text below walks through data of ChEMBL document CHEMBL5291721, “A preclinical secondary pharmacology resource illuminates target-adverse drug reaction associations of marketed drugs” (Nat Commun, 2023).

In experiment [1] the target is T1, Muscarinic acetylcholine receptor M1 (Homo sapiens, UniProt P11229).
T1 sequence (P11229 whole entry): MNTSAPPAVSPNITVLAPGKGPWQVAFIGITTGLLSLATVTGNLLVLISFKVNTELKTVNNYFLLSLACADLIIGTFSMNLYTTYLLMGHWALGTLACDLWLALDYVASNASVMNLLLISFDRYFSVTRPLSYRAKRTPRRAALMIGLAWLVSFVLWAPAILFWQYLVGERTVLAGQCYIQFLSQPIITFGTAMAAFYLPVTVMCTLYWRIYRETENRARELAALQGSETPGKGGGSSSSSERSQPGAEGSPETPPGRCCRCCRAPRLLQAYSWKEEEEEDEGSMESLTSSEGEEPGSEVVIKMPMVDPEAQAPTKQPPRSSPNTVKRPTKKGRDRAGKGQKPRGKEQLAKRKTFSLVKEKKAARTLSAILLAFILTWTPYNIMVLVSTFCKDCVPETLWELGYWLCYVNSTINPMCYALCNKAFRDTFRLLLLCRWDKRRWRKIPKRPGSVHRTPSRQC

Experiment [2] addresses T2, Retinoic acid receptor alpha (Homo sapiens, UniProt P10276).
T2 sequence (P10276 whole entry): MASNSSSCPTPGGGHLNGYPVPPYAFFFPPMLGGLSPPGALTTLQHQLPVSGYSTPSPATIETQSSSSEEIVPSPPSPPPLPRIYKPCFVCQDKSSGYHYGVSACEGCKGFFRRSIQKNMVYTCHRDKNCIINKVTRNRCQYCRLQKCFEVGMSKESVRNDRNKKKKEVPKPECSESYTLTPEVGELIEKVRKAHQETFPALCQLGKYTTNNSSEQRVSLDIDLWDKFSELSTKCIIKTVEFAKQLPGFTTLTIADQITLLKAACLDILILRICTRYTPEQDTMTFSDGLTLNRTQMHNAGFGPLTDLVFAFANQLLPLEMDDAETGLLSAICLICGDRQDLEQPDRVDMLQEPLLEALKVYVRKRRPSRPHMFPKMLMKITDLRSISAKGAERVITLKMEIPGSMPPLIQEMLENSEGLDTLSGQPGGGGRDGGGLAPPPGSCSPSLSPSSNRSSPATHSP
It is filed as functional, cell-based.

For experiment [3], the target named is T3, Peroxisome proliferator-activated receptor alpha (Homo sapiens, UniProt Q07869).
T3 sequence (Q07869 whole entry): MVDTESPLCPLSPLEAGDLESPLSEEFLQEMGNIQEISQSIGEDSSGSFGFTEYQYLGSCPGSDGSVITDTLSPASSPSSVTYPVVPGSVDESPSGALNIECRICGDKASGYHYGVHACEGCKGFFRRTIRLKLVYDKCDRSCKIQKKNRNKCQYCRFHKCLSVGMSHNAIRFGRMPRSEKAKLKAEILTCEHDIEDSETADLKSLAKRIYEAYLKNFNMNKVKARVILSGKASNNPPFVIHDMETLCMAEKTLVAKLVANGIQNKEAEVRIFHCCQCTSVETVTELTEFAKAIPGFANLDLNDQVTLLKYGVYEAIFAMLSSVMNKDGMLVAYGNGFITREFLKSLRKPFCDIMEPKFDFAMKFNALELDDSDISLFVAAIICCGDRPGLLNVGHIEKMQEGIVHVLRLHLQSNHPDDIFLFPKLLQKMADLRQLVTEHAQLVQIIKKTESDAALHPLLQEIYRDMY
It is filed as functional.

For experiment [4], the target named is T4, Retinoic acid receptor gamma (Homo sapiens, UniProt P13631).
T4 sequence (P13631 whole entry): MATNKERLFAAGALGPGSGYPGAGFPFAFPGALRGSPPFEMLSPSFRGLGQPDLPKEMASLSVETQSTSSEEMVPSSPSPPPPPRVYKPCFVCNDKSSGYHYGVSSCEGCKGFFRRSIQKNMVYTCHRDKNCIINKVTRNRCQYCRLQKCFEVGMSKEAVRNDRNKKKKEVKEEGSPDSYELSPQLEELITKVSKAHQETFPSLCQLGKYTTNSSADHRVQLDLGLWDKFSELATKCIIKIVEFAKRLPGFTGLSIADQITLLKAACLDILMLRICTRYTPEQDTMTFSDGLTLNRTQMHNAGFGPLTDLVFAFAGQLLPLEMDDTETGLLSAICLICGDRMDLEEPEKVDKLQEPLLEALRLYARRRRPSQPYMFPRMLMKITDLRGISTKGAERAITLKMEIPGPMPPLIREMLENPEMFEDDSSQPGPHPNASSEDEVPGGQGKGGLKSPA
It is filed as functional, cell-based.

Experiment [5] concerns the target T5, Retinoic acid receptor beta (Homo sapiens, UniProt P10826).
T5 sequence (P10826 whole entry): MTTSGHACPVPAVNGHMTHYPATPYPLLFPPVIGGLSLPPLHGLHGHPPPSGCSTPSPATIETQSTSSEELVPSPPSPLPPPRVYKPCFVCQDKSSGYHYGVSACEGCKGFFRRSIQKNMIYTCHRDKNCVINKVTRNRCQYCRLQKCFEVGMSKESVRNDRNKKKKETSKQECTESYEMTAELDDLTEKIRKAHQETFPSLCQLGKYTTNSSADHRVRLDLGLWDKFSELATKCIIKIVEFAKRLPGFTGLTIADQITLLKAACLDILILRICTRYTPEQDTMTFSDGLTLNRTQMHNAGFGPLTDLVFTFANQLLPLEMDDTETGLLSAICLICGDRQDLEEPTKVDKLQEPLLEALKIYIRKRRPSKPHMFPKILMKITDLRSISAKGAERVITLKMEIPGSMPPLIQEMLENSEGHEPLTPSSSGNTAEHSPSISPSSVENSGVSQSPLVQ
It is filed as functional, cell-based.

The target in experiment [6] is T4, Retinoic acid receptor gamma. It is filed as functional, cell-based. This is another data set of the same source.
For experiment [7], the target named is T6, Nuclear receptor subfamily 1 group I member 3 (Homo sapiens, UniProt Q14994).
T6 sequence (Q14994 whole entry): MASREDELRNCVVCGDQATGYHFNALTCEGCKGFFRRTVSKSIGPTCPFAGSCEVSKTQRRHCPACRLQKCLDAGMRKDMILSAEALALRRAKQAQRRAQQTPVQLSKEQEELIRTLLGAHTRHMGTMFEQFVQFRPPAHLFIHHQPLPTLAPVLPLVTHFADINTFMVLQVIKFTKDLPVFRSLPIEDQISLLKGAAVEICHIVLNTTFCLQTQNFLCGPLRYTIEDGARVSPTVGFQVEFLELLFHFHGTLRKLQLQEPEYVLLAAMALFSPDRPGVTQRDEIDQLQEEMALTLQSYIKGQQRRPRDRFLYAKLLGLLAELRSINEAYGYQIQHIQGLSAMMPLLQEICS
It is filed as functional.

Another experiment addresses D(1B) dopamine receptor (Homo sapiens, UniProt P21918).
The target in experiment [8] is 5-hydroxytryptamine receptor 2A (Homo sapiens, UniProt P28223).
5-hydroxytryptamine receptor 2A, sequence (P28223 whole entry): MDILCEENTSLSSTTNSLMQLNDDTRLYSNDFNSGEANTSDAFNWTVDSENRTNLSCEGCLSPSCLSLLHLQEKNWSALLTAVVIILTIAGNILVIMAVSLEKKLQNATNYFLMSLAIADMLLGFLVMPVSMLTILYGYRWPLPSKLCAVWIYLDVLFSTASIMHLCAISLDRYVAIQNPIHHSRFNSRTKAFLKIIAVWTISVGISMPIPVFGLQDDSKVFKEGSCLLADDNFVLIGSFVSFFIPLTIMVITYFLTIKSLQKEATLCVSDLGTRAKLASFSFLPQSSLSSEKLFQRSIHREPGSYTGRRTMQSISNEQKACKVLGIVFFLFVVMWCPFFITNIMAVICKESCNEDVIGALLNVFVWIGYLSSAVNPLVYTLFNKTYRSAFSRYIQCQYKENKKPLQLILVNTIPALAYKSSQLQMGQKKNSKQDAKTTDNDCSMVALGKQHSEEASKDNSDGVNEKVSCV
Experiment [9] has as its target 5-hydroxytryptamine receptor 2B (Homo sapiens, UniProt P41595).
Note: assay procedure not described here.

D(1B) dopamine receptor, sequence (P21918 whole entry): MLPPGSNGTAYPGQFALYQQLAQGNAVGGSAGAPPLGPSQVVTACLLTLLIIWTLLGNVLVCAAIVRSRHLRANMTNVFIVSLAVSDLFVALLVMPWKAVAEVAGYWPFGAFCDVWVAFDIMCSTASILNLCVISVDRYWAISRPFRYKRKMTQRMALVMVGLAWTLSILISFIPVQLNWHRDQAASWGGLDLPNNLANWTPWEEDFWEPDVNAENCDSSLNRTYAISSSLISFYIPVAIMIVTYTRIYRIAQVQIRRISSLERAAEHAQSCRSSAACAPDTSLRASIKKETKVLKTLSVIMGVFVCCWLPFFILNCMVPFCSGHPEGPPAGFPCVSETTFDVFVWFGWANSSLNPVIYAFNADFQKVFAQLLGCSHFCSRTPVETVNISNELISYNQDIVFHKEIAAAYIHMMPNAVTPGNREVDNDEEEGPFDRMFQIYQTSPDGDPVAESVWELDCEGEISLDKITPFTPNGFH
5-hydroxytryptamine receptor 2B, sequence (P41595 whole entry): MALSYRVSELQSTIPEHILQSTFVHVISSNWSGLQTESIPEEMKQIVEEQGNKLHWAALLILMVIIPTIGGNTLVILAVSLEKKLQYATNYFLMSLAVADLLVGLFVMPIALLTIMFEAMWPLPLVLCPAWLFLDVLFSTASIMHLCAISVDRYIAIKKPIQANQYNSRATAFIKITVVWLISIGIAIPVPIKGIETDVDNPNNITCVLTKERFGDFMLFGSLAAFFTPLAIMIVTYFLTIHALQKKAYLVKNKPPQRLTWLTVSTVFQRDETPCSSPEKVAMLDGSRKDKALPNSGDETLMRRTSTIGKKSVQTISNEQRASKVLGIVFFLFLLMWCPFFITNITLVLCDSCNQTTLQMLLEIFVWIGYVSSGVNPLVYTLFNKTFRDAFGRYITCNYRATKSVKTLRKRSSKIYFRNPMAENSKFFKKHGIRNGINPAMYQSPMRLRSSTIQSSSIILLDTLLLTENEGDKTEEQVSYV

`O=C(Nc1cccc2c(=O)cc(-c3nnn[nH]3)oc12)c1ccc(OCCCCc2ccccc2)cc1` displayed an AC50 in experiment [1] of 28 µM. This counts as double-digit micromolar.
Turning to `CC(/C=C1\SC(=S)N(CC(=O)O)C1=O)=C\c1ccccc1`, the AC50 in experiment [2] was above 30 µM; in [3] it was above 30 µM; in [4], above 30 µM; in experiment [5] it was above 30 µM; in experiment [6], above 30 µM; in experiment [7], 3.6 µM.
As to `CC1(C)S[C@@H]2[C@H](NC(=O)[C@H](N)c3ccc(O)cc3)C(=O)N2[C@H]1C(=O)O` [AMOXICILLIN], the AC50 in experiment [2] is above 30 µM; in experiment [3], above 30 µM; in [4] it was 9.1 µM; in [5], above 30 µM; in [6] it was above 30 µM; at D(1B) dopamine receptor, above 10 µM. For the same molecule, in experiment [7], the activity was half-maximal at 15 µM (AC50).
In experiment [8], `O=C1CN2Cc3c(ccc(Cl)c3Cl)N=C2N1` [ANAGRELIDE] came in with an AC50 above 10 µM.
On to `COC(=O)[C@H](c1ccccc1Cl)N1CCc2sccc2C1` [CLOPIDOGREL], for which the AC50 at D(1B) dopamine receptor is above 10 µM.
Regarding `CN1C[C@H](C(=O)N[C@]2(C)O[C@@]3(O)[C@@H]4CCCN4C(=O)[C@H](Cc4ccccc4)N3C2=O)C[C@@H]2c3cccc4[nH]cc(c34)C[C@H]21` [DIHYDROERGOTAMINE], in experiment [9], the activity was half-maximal at 0.0444 µM (AC50).
In experiment [1], `CCC(=O)O[C@@H](O[P@](=O)(CCCCc1ccccc1)CC(=O)N1C[C@H](C2CCCCC2)C[C@H]1C(=O)O)C(C)C` [FOSINOPRIL] showed an AC50 above 30 µM.
With `Cc1cnc(NC(=O)C2=C(O)c3ccccc3S(=O)(=O)N2C)s1` [MELOXICAM], the AC50 on D(1B) dopamine receptor was above 10 µM.
For the molecule `CC[C@@H](CO)NC(=O)[C@@H]1C=C2c3cccc4[nH]cc(c34)C[C@H]2N(C)C1` [METHYLERGONOVINE], the AC50 in experiment [9] was 0.0054 µM.
As for `CN(C)c1cc(CNCC(C)(C)C)c(O)c2c1C[C@H]1C[C@H]3[C@H](N(C)C)C(O)=C(C(N)=O)C(=O)[C@@]3(O)C(O)=C1C2=O` [OMADACYCLINE], the AC50 in experiment [1] is above 30 µM.
`CNC[C@H](O)c1cccc(O)c1` [PHENYLEPHRINE]: in experiment [8], the half-maximal activity concentration (AC50) is above 10 µM.
In turn, `CC(C)C[C@H](CN)CC(=O)O` [PREGABALIN] yielded an AC50 in [8] above 10 µM.
Turning to `CNC(=O)c1cc(Oc2ccc(NC(=O)Nc3ccc(Cl)c(C(F)(F)F)c3)c(F)c2)ccn1` [REGORAFENIB], the concentration at half-maximal activity (AC50) in experiment [2] was above 30 µM; in [3] it was above 30 µM; in [4], 9 µM; in experiment [1], 2.37 µM; in experiment [5], above 30 µM; in experiment [6], above 30 µM. For the same molecule, the activity in experiment [7] was half-maximal at 24 µM (AC50).
Regarding `CCOc1cc(CC(=O)N[C@@H](CC(C)C)c2ccccc2N2CCCCC2)ccc1C(=O)O` [REPAGLINIDE], the AC50 in experiment [2] is above 30 µM; in experiment [3], above 30 µM; in [4], above 30 µM; in [5], above 30 µM; in experiment [6], above 30 µM; in experiment [7], 5 µM.
Consider `CCCN(CCC)CCc1cccc2c1CC(=O)N2` [ROPINIROLE], for which the AC50 was above 10 µM in [8] and 13.4 µM in experiment [9].
For the molecule `CCCCNc1ccc(C(=O)OCCN(C)C)cc1` [TETRACAINE], the half-maximal activity concentration (AC50) at D(1B) dopamine receptor was above 10 µM.
As to `CN1CCN(CCCN2c3ccccc3Sc3ccc(S(=O)(=O)N(C)C)cc32)CC1` [THIOPROPERAZINE], in experiment [1], the activity was half-maximal at 3.24 µM (AC50).
Turning to `CC1(C)O[C@@H]2[C@@H](CO[C@@]3(COS(N)(=O)=O)OC(C)(C)O[C@@H]23)O1` [TOPIRAMATE], the AC50 in experiment [8] was above 10 µM.
